In this experiment the target is T1, carbonyl reductase 1 (CBR1) (Homo sapiens, UniProt P16152).
T1 construct: human recombinant CBR1 expressed in Escherichia coli Rosetta (DE3)
T1 sequence (P16152 2-277): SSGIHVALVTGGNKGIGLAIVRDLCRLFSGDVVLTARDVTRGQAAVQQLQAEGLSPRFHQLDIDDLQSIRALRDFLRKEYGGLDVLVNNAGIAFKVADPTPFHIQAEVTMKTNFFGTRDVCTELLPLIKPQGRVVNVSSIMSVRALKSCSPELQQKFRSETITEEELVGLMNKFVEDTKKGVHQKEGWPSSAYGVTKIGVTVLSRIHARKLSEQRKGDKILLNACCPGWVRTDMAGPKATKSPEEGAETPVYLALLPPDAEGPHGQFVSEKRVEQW
Nature of the experiment: recombinant CBR1 inhibition, menadione substrate, NADPH oxidation monitored at […] nm. Type of experiment: biochemical.

SMILES strings stand for the structures.

For `COc1ccc2[nH]c(C(=O)N3CCC(CC(C)(C)O)CC3)cc2c1` [ASP9521], the concentration for half-maximal inhibition (IC50) – broadly, the concentration that gives 50% inhibition – amounted to 44 µM.

These data come from publication PMC10180078, “In Silico and In Vitro Assessment of Carbonyl Reductase 1 Inhibition Using ASP9521—A Potent Aldo-Keto Reductase 1C3 Inhibitor with the Potential to Support Anticancer Therapy Using Anthracycline Antibiotics” (Molecules, 2023).
